# Experimental data reported in paper PMC10763615, “Identification and engineering of potent cyclic peptides with selective or promiscuous binding through biochemical profiling and bioinformatic data analysis” (RSC Chemical Biology, 2023).
# Read-outs that look alike come from different tables or passages of the source.
# T1: FGF-R4 ECD (Homo sapiens, UniProt P22455)
# T1 construct: DNA constructs for the extracellular domain (ECD) of human FGF-; HPC4 (C); made in house; host or cells: HEK 293-6E
# T1 sequence (P22455 22-369 limits assumed): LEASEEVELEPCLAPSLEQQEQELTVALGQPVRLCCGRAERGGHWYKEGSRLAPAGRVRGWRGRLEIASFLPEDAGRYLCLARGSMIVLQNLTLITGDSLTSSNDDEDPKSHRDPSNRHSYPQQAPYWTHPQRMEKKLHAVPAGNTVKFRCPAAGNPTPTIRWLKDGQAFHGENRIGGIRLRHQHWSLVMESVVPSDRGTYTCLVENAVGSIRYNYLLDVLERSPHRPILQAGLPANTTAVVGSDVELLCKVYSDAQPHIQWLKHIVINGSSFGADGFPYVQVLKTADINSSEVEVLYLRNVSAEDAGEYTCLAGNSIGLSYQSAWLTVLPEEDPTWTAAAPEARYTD
# T2: FGFR4/KLB (Fc-fused human FGF-R4 with beta-klotho) (Homo sapiens, UniProt P22455)
# T2 sequence (P22455 22-369 limits assumed): T1 sequence (P22455 22-369 limits assumed)
# T3: FGF-R1C ECD (Homo sapiens, UniProt P11362)
# T3 sequence (P11362 22-376 limits assumed): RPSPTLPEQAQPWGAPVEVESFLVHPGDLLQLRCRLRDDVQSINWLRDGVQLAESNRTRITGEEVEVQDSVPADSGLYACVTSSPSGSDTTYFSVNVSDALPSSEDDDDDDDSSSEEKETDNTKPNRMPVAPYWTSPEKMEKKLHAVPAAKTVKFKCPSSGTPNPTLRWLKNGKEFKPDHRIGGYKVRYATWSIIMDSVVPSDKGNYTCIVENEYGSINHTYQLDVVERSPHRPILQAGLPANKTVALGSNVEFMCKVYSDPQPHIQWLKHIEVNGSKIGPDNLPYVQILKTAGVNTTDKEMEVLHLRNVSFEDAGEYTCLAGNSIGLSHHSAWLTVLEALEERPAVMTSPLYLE
# T4: FGF-R3C ECD (Homo sapiens, UniProt P22607)
# T4 sequence (P22607 23-375 limits assumed): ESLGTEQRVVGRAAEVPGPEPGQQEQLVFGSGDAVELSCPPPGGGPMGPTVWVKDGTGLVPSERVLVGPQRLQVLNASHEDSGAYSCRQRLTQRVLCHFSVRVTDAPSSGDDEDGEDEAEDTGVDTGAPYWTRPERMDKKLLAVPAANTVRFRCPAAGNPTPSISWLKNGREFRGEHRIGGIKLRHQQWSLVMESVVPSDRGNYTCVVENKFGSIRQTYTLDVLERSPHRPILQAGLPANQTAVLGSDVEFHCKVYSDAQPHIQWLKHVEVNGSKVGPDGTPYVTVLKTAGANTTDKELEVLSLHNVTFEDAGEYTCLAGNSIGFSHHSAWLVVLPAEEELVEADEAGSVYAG
# T5: FGFR1c/KLB (Fc-fused human FGF-R1alpha(IIIc) with beta-klotho) (Homo sapiens, UniProt P11362)
# T5 sequence (P11362 22-376 limits assumed): T3 sequence (P11362 22-376 limits assumed)
# T6: FGFR3c/BKL (Fc-fused human FGF-R3alpha(IIIc) with beta-klotho) (Homo sapiens, UniProt P22607)
# T6 sequence (P22607 23-375 limits assumed): T4 sequence (P22607 23-375 limits assumed)
# B1: FGF21: unlabelled FGF21, natural ligand used as positive control (protein, UniProt Q9NSA1 29-209, looked up)
# Fibroblast growth factor 21: HPIPDSSPLLQFGGQVRQRYLYTDDAQQTEAHLEIREDGTVGGAADQSPESLLQLKALKPGVIQILGVKTSRFLCQRPDGALYGSLHFDPEACSFRELLLEDGYNVYQSEAHGLPLHLPGNKSPHRDPAPRGPARFLPLPGLPPALPEPPGILAPQPPDVGSSDPLSMVGPSQGRSPSYAS
# Experiments:
# FGF-R4 ECD [1] = biological target: T1, FGF-R4 ECD; assay: multi-concentration BLI of purified peptides; format: binding
# How it was run: (§1)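 Biolayer interferometry with biotinylated FGF-R ECD on streptavidin biosensors in PBS pH 7.4, 0.05% Tween-20, 0.01% BSA. Multi-concentration: purified peptide dilution series fitted to a multi-point KD model.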
# FGF-R4 ECD [2] = biological target: T1, FGF-R4 ECD; assay: single concentration BLI of crude peptides; format: binding; conditions: read-out: KD (4)
# How it was run: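 BLI, streptavidin sensors loaded with biotinylated receptor ECD. Single-point: ~1 μM crude peptide, PBS pH7.4/0.05% Tween-20/0.01% BSA; association then dissociation in buffer. KD corrected for UPLC-CAD-determined concentration.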
# [3] = biological target: T2, FGFR4/KLB (Fc-fused human FGF-R4 with beta-klotho); assay: AlphaScreen FGF21 competitive binding assay
# FGF-R1C ECD [4] = biological target: T3, FGF-R1C ECD; assay: biochemical
# How it was run: as §1
# FGF-R3C ECD [5] = biological target: T4, FGF-R3C ECD; assay: biochemical
# How it was run: as §1
# FGF-R1C ECD [6] = biological target: T3, FGF-R1C ECD; assay: biochemical; format: binding; parameters: DNA constructs for the extracellular domain (ECD) of human FGF-; HPC4 (C); made in house; host or cells: HEK 293-6E
# How it was run: as §1
# FGF-R3C ECD [7] = biological target: T4, FGF-R3C ECD; assay: biochemical; format: binding; parameters: DNA constructs for the extracellular domain (ECD) of human FGF-; HPC4 (C); made in house; host or cells: HEK 293-6E
# How it was run: as §1
# [8] = biological target: T5, FGFR1c/KLB (Fc-fused human FGF-R1alpha(IIIc) with beta-klotho); assay: AlphaScreen FGF21 competitive binding assay; conditions: read-out: IC50 values for controls (FGF-R1C); positive controls, Alphascreen vs biotinylated FGF21
# Protocol: Alphascreen binding assay
# (§2) The competitive binding assay was carried out according to the methods detailed in Hansen. et al using
# (§3) AlphaScreen.3 All reagents and samples were prepared in assay buffer: 40mM Hepes, 140mM NaCl, 1mM
# (§4) CaCl2, 0,05% Tween20, pH=7.5, 0.1% BSA. In brief, recombinant human beta-klotho (R&D Systems) was
# (§5) preincubated for 60 min with the ectodomain, either Fc-fused human FGF-R1alpha(IIIc), FGF-R3alpha(IIIc)
# (§6) or FGF-R4 (R&D Systems), and the mixture was added to the test peptides in OptiPlate™ (PerkinElmer).
# (§7) Biotinylated FGF21 and heparin were further added to each well. AlphaScreen bead mix (1:1 mix of Protein
# (§8) A acceptor beads/ streptavidin-coated donor beads, PerkinElmer) were added to each well incubated
# (§9) overnight at RT in the dark, and measured on a plate reader (Envision). Assays were carried out in triplicates
# (§10) with concentrations ranging from 3, 10, 30, 100, 300 ,1000 and 3000 nM of peptide. No peptide control
# (§11) (media only) was used as a negative control, and unlabeled FGF21 and FGF1 as positive control.
# (§12) competing with biotinylated natural FGF21 ligand.
# [9] = biological target: T6, FGFR3c/BKL (Fc-fused human FGF-R3alpha(IIIc) with beta-klotho); assay: AlphaScreen FGF21 competitive binding assay; conditions: read-out: IC50 values for controls (FGF-R3C); positive controls, Alphascreen vs biotinylated FGF21
# Protocol: Alphascreen binding assay
# as §2, §3, §4, §5, §6, §7, §8, §9, §10, §11, §12
# [10] = purified trimer-18 library peptides
# [11] = crude T18 selection 1 (1:1:1) peptides, single concentration BLI (Table S4)
# [12] = read-out: IC50 values for controls (FGF-R4), positive controls, Alphascreen vs biotinylated FGF21
Molecule,Kd (FGF-R4 ECD [1]; purified NNK library peptides),"Kd (FGF-R4 ECD [2]; crude NNK peptides, single concentration BLI (Table S3))",IC50 [3],Kd (FGF-R1C ECD [4]),Kd (FGF-R3C ECD [5]),Kd (FGF-R4 ECD [1]; [10]),Kd (FGF-R4 ECD [2]; [11]),Kd (FGF-R1C ECD [6]),Kd (FGF-R3C ECD [7]),R4 KD (nM) (FGF-R4 ECD [1]; [10]),IC50 [8],IC50 [9],"IC50 [3, 12]"
CSCC[C@@H]1NC(=O)[C@H](CC(N)=O)NC(=O)[C@H](CO)NC(=O)[C@@H](NC(=O)[C@@H](N)CCSC)CSSC[C@@H](C(=O)NCC(=O)N[C@@H](CO)C(=O)NCC(=O)N[C@@H](CO)C(=O)N[C@@H](CC(=O)O)C(=O)N[C@@H](Cc2ccc(O)cc2)C(=O)N[C@@H](CCCCN)C(=O)N[C@@H](CC(=O)O)C(=O)N[C@@H](CC(=O)O)C(=O)N[C@@H](CC(=O)O)C(=O)N[C@@H](CC(=O)O)C(=O)N[C@@H](CCCCN)C(N)=O)NC(=O)[C@H](C)NC(=O)[C@H](Cc2c[nH]c3ccccc23)NC(=O)[C@H](Cc2c[nH]c3ccccc23)NC(=O)[C@H](CCCNC(=N)N)NC(=O)[C@H](CC(N)=O)NC(=O)[C@H](C)NC(=O)[C@H](CC(C)C)NC(=O)[C@H](CCCCN)NC(=O)[C@H](Cc2c[nH]c3ccccc23)NC1=O [1C.3],> 1000 nM,> 10000 nM,> 1000 nM,–,–,–,–,–,–,–,–,–,–
CSCC[C@H](NC(C)=O)C(=O)N[C@H]1CSSC[C@@H](C(=O)NCC(=O)N[C@@H](CO)C(=O)NCC(=O)N[C@@H](CO)C(=O)N[C@@H](CC(=O)O)C(=O)N[C@@H](Cc2ccc(O)cc2)C(=O)N[C@@H](CCCCN)C(=O)N[C@@H](CC(=O)O)C(=O)N[C@@H](CC(=O)O)C(=O)N[C@@H](CC(=O)O)C(=O)N[C@@H](CC(=O)O)C(=O)N[C@@H](CCCCN)C(N)=O)NC(=O)[C@H](CC(C)C)NC(=O)[C@H](CCC(N)=O)NC(=O)[C@H](Cc2c[nH]c3ccccc23)NC(=O)[C@H](CCCCN)NC(=O)[C@H](CCC(=O)O)NC(=O)[C@H](Cc2c[nH]c3ccccc23)NC(=O)[C@H](CC(N)=O)NC(=O)[C@H](Cc2ccc(O)cc2)NC(=O)[C@H](Cc2ccccc2)NC(=O)[C@H](CCCNC(=N)N)NC(=O)[C@H]([C@@H](C)O)NC(=O)[C@H](Cc2ccc(O)cc2)NC1=O [4.13],–,–,–,> 1000 nM,> 1000 nM,> 1000 nM,> 10000 nM,17 nM,> 10000 nM,–,–,–,–
CC[C@H](C)[C@@H]1NC(=O)[C@H](CCCCN)NC(=O)[C@H](CO)NC(=O)[C@H](CC(N)=O)NC(=O)[C@@H]2CCCN2C(=O)[C@@H]2CCCN2C(=O)[C@H](CCCNC(=N)N)NC(=O)[C@H](Cc2c[nH]cn2)NC(=O)[C@H](Cc2ccc(O)cc2)NC(=O)[C@@H](NC(=O)[C@H](CCSC)NC(C)=O)CSSC[C@@H](C(=O)NCC(=O)N[C@@H](CO)C(=O)NCC(=O)N[C@@H](CO)C(=O)N[C@@H](CC(=O)O)C(=O)N[C@@H](Cc2ccc(O)cc2)C(=O)N[C@@H](CCCCN)C(=O)N[C@@H](CC(=O)O)C(=O)N[C@@H](CC(=O)O)C(=O)N[C@@H](CC(=O)O)C(=O)N[C@@H](CC(=O)O)C(=O)N[C@@H](CCCCN)C(N)=O)NC(=O)[C@H](CCCCN)NC(=O)[C@H](CCCNC(=N)N)NC(=O)[C@H](Cc2c[nH]c3ccccc23)NC1=O [4.14],–,–,–,> 1000 nM,> 1000 nM,524 nM,214 nM,> 10000 nM,> 10000 nM,–,–,–,–
CSCC[C@H](NC(C)=O)C(=O)N[C@H]1CSSC[C@@H](C(=O)NCC(=O)N[C@@H](CO)C(=O)NCC(=O)N[C@@H](CO)C(=O)N[C@@H](CC(=O)O)C(=O)N[C@@H](Cc2ccc(O)cc2)C(=O)N[C@@H](CCCCN)C(=O)N[C@@H](CC(=O)O)C(=O)N[C@@H](CC(=O)O)C(=O)N[C@@H](CC(=O)O)C(=O)N[C@@H](CC(=O)O)C(=O)N[C@@H](CCCCN)C(N)=O)NC(=O)[C@H]([C@@H](C)O)NC(=O)[C@H](C(C)C)NC(=O)[C@H](CC(C)C)NC(=O)[C@H](CC(C)C)NC(=O)[C@H](Cc2c[nH]c3ccccc23)NC(=O)[C@H](Cc2ccc(O)cc2)NC(=O)[C@H](CC(C)C)NC(=O)[C@H](C(C)C)NC(=O)[C@H](CCC(=O)O)NC(=O)[C@H](CCCNC(=N)N)NC(=O)[C@H](CCC(=O)O)NC1=O [4.15],–,–,–,> 1000 nM,> 1000 nM,378 nM,128 nM,48 nM,> 10000 nM,–,–,–,–
CSCC[C@H](NC(C)=O)C(=O)N[C@H]1CSSC[C@@H](C(=O)NCC(=O)N[C@@H](CO)C(=O)NCC(=O)N[C@@H](CO)C(=O)N[C@@H](CC(=O)O)C(=O)N[C@@H](Cc2ccc(O)cc2)C(=O)N[C@@H](CCCCN)C(=O)N[C@@H](CC(=O)O)C(=O)N[C@@H](CC(=O)O)C(=O)N[C@@H](CC(=O)O)C(=O)N[C@@H](CC(=O)O)C(=O)N[C@@H](CCCCN)C(N)=O)NC(=O)[C@H](C)NC(=O)[C@H](Cc2c[nH]c3ccccc23)NC(=O)[C@H](Cc2ccc(O)cc2)NC(=O)[C@H](CCCNC(=N)N)NC(=O)[C@H](Cc2ccc(O)cc2)NC(=O)[C@H](CO)NC(=O)[C@H](Cc2ccc(O)cc2)NC(=O)[C@H](Cc2ccccc2)NC(=O)[C@H](CC(=O)O)NC(=O)[C@H](CC(=O)O)NC(=O)[C@H](CC(C)C)NC(=O)[C@H](Cc2ccc(O)cc2)NC1=O [4.16],–,–,–,15 nM,37 nM,> 1000 nM,> 10000 nM,54 nM,> 10000 nM,no observable binding,–,–,–
CSCC[C@H](NC(C)=O)C(=O)N[C@H]1CSSC[C@@H](C(=O)NCC(=O)N[C@@H](CO)C(=O)NCC(=O)N[C@@H](CO)C(=O)N[C@@H](CC(=O)O)C(=O)N[C@@H](Cc2ccc(O)cc2)C(=O)N[C@@H](CCCCN)C(=O)N[C@@H](CC(=O)O)C(=O)N[C@@H](CC(=O)O)C(=O)N[C@@H](CC(=O)O)C(=O)N[C@@H](CC(=O)O)C(=O)N[C@@H](CCCCN)C(N)=O)NC(=O)[C@H](Cc2c[nH]cn2)NC(=O)[C@H](CCCNC(=N)N)NC(=O)[C@H](CC(C)C)NC(=O)[C@H](CC(=O)O)NC(=O)[C@H](CCCCN)NC(=O)[C@H](Cc2ccc(O)cc2)NC(=O)[C@H](CC(C)C)NC(=O)[C@H](CC(C)C)NC(=O)[C@H](C(C)C)NC(=O)[C@H](CC(N)=O)NC1=O [4.17],–,–,–,> 1000 nM,> 1000 nM,> 1000 nM,> 10000 nM,> 10000 nM,> 10000 nM,–,–,–,–
FGF1: FGF1 used as positive control [reference compound],–,–,–,–,–,–,–,–,–,–,4 nM,3 nM,7 nM
B1,–,–,–,–,–,–,–,–,–,–,23 nM,20 nM,674 nM
